# Experimental data published in the supplement of paper PMC11451515.
# Test system: NOMO1
# Assay: cell viability relative to DMSO control; higher = less cytotoxic
# Details: 48 h
# In short: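 Viability is expressed as a percentage of DMSO wells within each plate, and cell-free wells serve as background. Seeding densities in the 1536-well plates (5 μl) were 500 cells/well for NOMO1 or SEM leukemia cells and 1000 cells/well for P12-Ichikawa. Each line was adapted for at least four passages in each medium. Library compounds in DMSO were pin-dosed at 47 μM to 0.79 nM (11 points, threefold), and CellTiter-Glo One luminescence was read after 48 h at 37°C.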
# [1] = HPLM + 10% dialyzed FBS, 0.000781 µM
# [2] = HPLM + 10% dialyzed FBS, 0.00234 µM
# [3] = HPLM + 10% dialyzed FBS, 0.00702 µM
# [4] = HPLM + 10% dialyzed FBS, 0.0211 µM
# [5] = HPLM + 10% dialyzed FBS, 0.0632 µM
# [6] = HPLM + 10% dialyzed FBS, 0.19 µM
# [7] = HPLM + 10% dialyzed FBS, 0.569 µM
# [8] = HPLM + 10% dialyzed FBS, 1.71 µM
# [9] = HPLM + 10% dialyzed FBS, 5.12 µM
# [10] = HPLM + 10% dialyzed FBS, 15.4 µM
# [11] = HPLM + 10% dialyzed FBS, 46.1 µM
# [12] = RPMI 5 mM glucose + 10% FBS, 0.000781 µM
# [13] = RPMI 5 mM glucose + 10% FBS, 0.00234 µM
# [14] = RPMI 5 mM glucose + 10% FBS, 0.00702 µM
# [15] = RPMI 5 mM glucose + 10% FBS, 0.0211 µM
# [16] = RPMI 5 mM glucose + 10% FBS, 0.0632 µM
# [17] = RPMI 5 mM glucose + 10% FBS, 0.19 µM
# [18] = RPMI 5 mM glucose + 10% FBS, 0.569 µM
# [19] = RPMI 5 mM glucose + 10% FBS, 1.71 µM
# [20] = RPMI 5 mM glucose + 10% FBS, 5.12 µM
# [21] = RPMI 5 mM glucose + 10% FBS, 15.4 µM
# [22] = RPMI 5 mM glucose + 10% FBS, 46.1 µM
# [23] = RPMI 5 mM glucose + 10% dialyzed FBS, 0.000781 µM
# [24] = RPMI 5 mM glucose + 10% dialyzed FBS, 0.00234 µM
# [25] = RPMI 5 mM glucose + 10% dialyzed FBS, 0.00702 µM
# [26] = RPMI 5 mM glucose + 10% dialyzed FBS, 0.0211 µM
# [27] = RPMI 5 mM glucose + 10% dialyzed FBS, 0.0632 µM
# [28] = RPMI 5 mM glucose + 10% dialyzed FBS, 0.19 µM
# [29] = RPMI 5 mM glucose + 10% dialyzed FBS, 0.569 µM
# [30] = RPMI 5 mM glucose + 10% dialyzed FBS, 1.71 µM
# [31] = RPMI 5 mM glucose + 10% dialyzed FBS, 5.12 µM
# [32] = RPMI 5 mM glucose + 10% dialyzed FBS, 15.4 µM
# [33] = RPMI 5 mM glucose + 10% dialyzed FBS, 46.1 µM
SMILES,cell viability [1] [%],cell viability [2] [%],cell viability [3] [%],cell viability [4] [%],cell viability [5] [%],cell viability [6] [%],cell viability [7] [%],cell viability [8] [%],cell viability [9] [%],cell viability [10] [%],cell viability [11] [%],cell viability [12] [%],cell viability [13] [%],cell viability [14] [%],cell viability [15] [%],cell viability [16] [%],cell viability [17] [%],cell viability [18] [%],cell viability [19] [%],cell viability [20] [%],cell viability [21] [%],cell viability [22] [%],cell viability [23] [%],cell viability [24] [%],cell viability [25] [%],cell viability [26] [%],cell viability [27] [%],cell viability [28] [%],cell viability [29] [%],cell viability [30] [%],cell viability [31] [%],cell viability [32] [%],cell viability [33] [%]
O=C(O)CCn1c2c(c3ccccc31)C[C@H](N[S+](=O)([O-])c1ccc(F)cc1)CC2,115,112,120,124,113,109,104,105,116,88.3,72.2,102,105,108,98.2,114,99,99.2,98.7,94.2,102,90.5,99.2,107,120,102,95.8,102,109,98.1,103,91.8,85.9
O=C(Nc1ncc(SCCN2CCCC2)s1)[C@]1(c2ccc([S+](=O)([O-])C3CC3)cc2)C[C@H]1C1CCCCC1,111,136,110,123,120,106,105,102,103,70.2,5.84,125,127,123,111,123,113,107,128,108,104,25.1,118,117,118,126,124,111,114,117,110,94.2,17.4
COC(=O)C1C2CC3c4[nH]c5cc(OC)ccc5c4CCN3CC2CC(OC(=O)c2cc(OC)c(OC)c(OC)c2)C1OC (stereo not given),108,123,101,125,119,112,115,106,112,102,81.3,106,94.6,107,103,95.2,104,93.4,94.1,96.4,95.7,90.2,105,101,103,93.8,92.1,98.2,98.5,105,102,112,82.9
CC1(C)CNc2cc(NC(=O)c3cccnc3NCc3ccncc3)ccc21,131,118,112,137,108,105,112,113,109,94.6,91.8,115,119,134,124,120,118,124,120,103,120,118,116,110,120,112,107,96.3,114,115,113,105,115
CN1c2ccccc2C(=O)N2CCc3c([nH]c4ccccc34)C21 (stereo not given),122,115,118,138,130,135,151,118,107,105,102,116,108,122,116,112,111,123,115,102,107,106,–,–,–,–,–,–,–,–,–,–,–
C=CC(=O)Nc1cccc(Nc2nc(NC3CCC(N(C)C)CC3)nc3c2ncn3C(C)C)c1 (stereo not given),96.7,120,114,94.7,111,109,125,73.8,7.49,5.11,4.77,127,111,115,100,103,104,99.6,98.2,11.9,5.39,3.68,103,98.2,103,103,106,105,105,72.9,7.93,5.45,4.26
CNC[C@H](O)c1cccc(O)c1,92.9,92.1,98.8,36.8,111,103,109,110,99,113,122,78.1,86.8,94.7,26.9,93,89.4,90.6,92.8,88.6,102,99,78.3,88.4,98.3,32.9,98,102,101,87.7,82.3,91.1,103
O=C(O)/C=C/c1ccc(O)c(O)c1,104,125,104,107,127,124,118,118,104,94.7,67,124,100,109,107,97.9,98.9,92.5,111,101,92.2,25.2,105,118,106,102,106,115,107,112,101,105,47.9
Cc1ccc([S+](=O)([O-])Nc2nc3ccccc3nc2Nc2ccc3nsnc3c2)cc1,97.3,106,114,104,116,110,111,72.5,21.3,18,13.1,89.2,94.4,89.2,108,101,119,96.7,78.5,14,11.5,7.49,84.8,88.7,106,91.8,111,99.2,92.8,96.1,20.7,15.9,12.7
N#Cc1ccnc(Nc2cc(C3CCN(C4COC4)CC3)cc(N3CCC(F)(F)C3)n2)c1,121,109,119,114,103,110,114,124,127,53.2,10.6,101,99.7,106,106,93.6,108,105,102,107,44.7,11.3,108,91.6,110,102,96.2,107,98.7,108,107,39.1,9.87
C[C@@H](NC(=O)c1ncnc(N)c1Cl)c1ncc(C(=O)Nc2cc(C(F)(F)F)c(Cl)cn2)s1,–,–,–,–,–,–,–,–,–,–,–,99.4,124,124,121,125,122,138,127,114,103,88.3,–,–,–,–,–,–,–,–,–,–,–
CC1(N2CCC(n3c([C@@H]4CCCNC4)nc4ccccc43)CC2)CCCCCCC1,77.1,100,112,111,127,116,116,101,94,45.4,7.21,93.6,103,102,112,108,124,112,120,109,97.7,53.5,91,108,122,115,121,104,130,134,98.4,69.4,17.8
CC(C)c1ccc(Cn2ccc3c4c(N)nc(NC5CC5)nc4ccc32)cc1,116,114,116,101,126,123,70.2,53.1,38.8,39.3,4.39,121,116,125,120,120,130,123,113,100,30.9,4.9,110,109,104,107,133,124,128,84.7,50.3,49.8,3.66
CC[C@H](C)C(=O)O[C@H]1C[C@H](O)\C=C2\C=C/[C@H](C)[C@H](CC[C@@H](O)C[C@@H](O)CC(O)=O)[C@@H]12,123,116,118,119,125,123,110,101,103,104,84.1,114,111,118,106,117,126,116,116,104,105,102,105,110,117,104,101,110,112,101,103,107,99
C=CCc1cccc(/C=N/NC(=O)CN2CCN(Cc3ccccc3)CC2)c1O,–,–,–,–,–,–,–,–,–,–,–,120,115,108,119,116,109,114,100,115,96.5,8.9,–,–,–,–,–,–,–,–,–,–,–
CN(C)CCN(C)C(=O)c1ccc(NC(=O)Nc2ccc(-c3nc(N4CCOCC4)c4ccn(CC(F)(F)F)c4n3)cc2)cc1,–,–,–,–,–,–,–,–,–,–,–,101,115,117,130,109,91.2,74.5,70,75.7,78.7,81.9,116,113,113,121,92.6,78.5,81.7,67.4,72.5,68.1,69.5
C[S+](=O)([O-])c1ccc(-c2cnc(N)c(C(=O)Nc3ccccc3)n2)cc1,113,119,128,126,118,145,123,103,115,52.1,56.1,110,110,112,110,111,133,113,116,110,87,98.4,95.6,93.1,99.7,104,106,113,117,112,110,75,69.3
